From patent US20060167019A1, “Fungicidal mixtures based on a trizolopyrimidine derivative” (priority 2003, published 2006)

System: Plasmopara viticola
Test: Activity against peronospora of grapevines caused by Plasmopara viticola (protective spray on potted vines)
Assay type: in vivo
Settings: individual active compound, potted vines cultivar Müller-Thurgau, untreated control 84% infection
Description: The active compounds, separately or jointly, were prepared as a stock solution comprising 0.25% by weight of active compound in acetone or DMSO. 1% by weight of the emulsifier Uniperol® EL (wetting agent having emulsifying and dispersant action based on ethoxylated alkylphenols) was added to this solution, and the mixture was diluted with water to the desired concentration.
Leaves of potted vines of the cultivar “Müller-Thurgau” were sprayed to runoff point with an aqueous suspension having the concentration of active compound stated below. The next day, the undersides of the leaves were inoculated with an aqueous zoospore suspension of Plasmopara viticola. The grapevines were then initially placed in a water-vapor-saturated chamber at 24° C. for 48 hours and then in a greenhouse at 20-30° C. for 5 days. After this period of time, the plants were again placed in a humid chamber for 16 hours to promote sporangiophore eruption. The extent of the development of the disease on the undersides of the leaves was then determined visually.
The visually determined percentages of infected leaf areas were converted into efficacies in % of the untreated control:
The efficacy (E) is calculated as follows using Abbot's formula: E=(1−α/β)−100 α corresponds to the fungicidal infection of the treated plants in % and β corresponds to the fungicidal infection of the untreated (control) plants in %
An efficacy of 0 means that the infection level of the treated plants corresponds to that of the untreated control plants; an efficacy of 100 means that the treated plants are not infected.
The expected efficacies of mixtures of active compounds were determined using Colby's formula (Colby, S. R. “Calculating synergistic and antagonistic responses of herbicide combinations”, Weeds, 15, 20-22, 1967) and compared with the observed efficacies.
Colby's formula: E=x+y−x·y/100 • E expected efficacy, expressed in % of the untreated control, when using the mixture of the active compounds A and B at the concentrations a and b • x efficacy, expressed in % of the untreated control, when using the active compound A at the concentration a • y efficacy, expressed in % of the untreated control, when using the active compound B at the concentration b

Compound: CC1CCN(c2c(-c3c(F)cccc3Cl)c(Cl)nc3ncnn23)CC1 [Comparison A]
- Efficacy in % of the untreated control (0.25 ppm in the spray liquor): 0%
- Efficacy in % of the untreated control (1 ppm in the spray liquor): 0%

Compound: CC1CCN(c2c(-c3c(F)cc(F)cc3F)c(Cl)nc3ncnn23)CC1 [I, 5-chloro-7-(4-methylpiperidin-1-yl)-6-(2,4,6-trifluorophenyl)-[1,2,4]triazolo[1,5-a]pyrimidine]
- Efficacy in % of the untreated control (0.25 ppm in the spray liquor): 0%
- Efficacy in % of the untreated control (1 ppm in the spray liquor): 17%

Compound: C[C@H](Nc1c(-c2c(F)cc(F)cc2F)c(Cl)nc2ncnn12)C(F)(F)F [Comparison B]
- Efficacy in % of the untreated control (0.25 ppm in the spray liquor): 5%
- Efficacy in % of the untreated control (1 ppm in the spray liquor): 17%
